# Where two headings read alike, the source gives them in different places. Starred links: 1 amine or outer side, 2 acyl side, 3 side chain; linkers in the order of their positions; H or OH if unused. Positions of bridges follow the written chain, without caps; N, C: chain ends. Non-standard residues stand in square brackets, D forms with d. Residues, ends and D or L forms follow the SMILES beside them. *: point of attachment. Decanoyl(3R-OH) = CCCCCCC[C@@H](O)CC(=O)*; azaDab = NCCN(N[*:1])C(=O)[*:2]; dDab = NCC[C@@H](N)C(=O)O; Dab = NCC[C@H](N)C(=O)O
# Columns and labels:
# A. baumannii ATCC 19606 = conditions: ATCC 19606
# In short: (§1)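 Mid-log cultures grown in Mueller Hinton broth at 37° C were tested by 2-fold broth microdilution at 5×10^5 CFU/mL final. Compounds were dissolved in water and tested over a final range of 32 to 0.015 μg/mL.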
# A. baumannii GN_093 PmxR = conditions: GN 093 PmxR
# In short: as §1
# E. coli ATCC 25922 = conditions: ATCC 25922
# In short: as §1
# K. pneumoniae ATCC 13883 = conditions: ATCC 13883
# In short: as §1
# [1] = test system: K. pneumoniae ATCC 700603, MDR; conditions: ATCC 700603
# In short: as §1
# [2] = test system: K. pneumoniae ATCC BAA-2146, NDM-1 pos; conditions: ATCC BAA-2146
# In short: as §1
# [3] = test system: K. pneumoniae GN_102 PmxR; conditions: GN 102 PmxR
# In short: as §1
# [4] = test system: K. pneumoniae GN_106, PmxR; conditions: GN 106, PmxR
# In short: as §1
# P. aeruginosa ATCC 27853 = conditions: ATCC 27853
# In short: as §1
# [5] = test system: P. aeruginosa GN_043, PmxR
# In short: as §1
# [6] = test system: P. aeruginosa GN_105, PmxR; conditions: GN 105, PmxR
# In short: as §1
# [7] = test system: S. aureus ATCC 25923, MSSA; conditions: ATCC 25923
# In short: as §1
# Neisseria gonorrhoeae = experiment: MIC determination, Neisseria gonorrhoeae; assay type: cell-based; conditions: for MIC N. gonorrhoeae FA19 ATCC BAA-1838: strain FA19 ATCC BAA-1838
# In short: as §1
# [8] = In vitro nephrotoxicity, LDH release from primary human kidney cells; assay type: cell-based; conditions: pH 7.4
# Excerpt: (§2) hPT cells were derived from whole human kidneys procured by the International Institute for the Advancement of Medicine (Edison, N.J., USA). All tissue was scored by a pathologist as normal (i.e., derived from non-cancerous, non-diseased tissue). Cell isolation procedures were based on those originally described by Todd et al. (1996) and modified (Cummings and Lash, 2000; Cummings et al., 2000) with use of sterile conditions (i.e., all instruments and glassware were autoclaved and all buffers were filtered through a 0.2-μm pore-size filter). Renal cortex and outer stripe were cut into slices, washed with sterile PBS, minced, and the pieces were placed in a trypsinization flask filled with 300 ml of sterile, filtered Hanks' buffer, containing 25 mM NaHCO3, 25 mM HEPES, pH 7.4, 0.5 mM EGTA, 0.2% (w/v) bovine serum albumin, 50 μg/ml gentamicin, 1.3 mg/mL collagenase, and 0.59 mg/ml CaCl2), which was filtered prior to use. Whole kidneys were perfused with Wisconsin medium and kept on ice until they arrived at the laboratory, which was usually within 24 h of removal from the donor.
# (§3) All buffers were continuously bubbled with 95% O2/5% CO2 and were maintained at 37° C. Minced cortical pieces from whole kidneys were subjected to collagenase digestion for 60 min, after which the supernatant was filtered through a 70-μm mesh filter to remove tissue fragments, centrifuged at 150×g for 7 min, and the pellet resuspended in Dulbecco's Modified Eagle's Medium: Ham's F12 Medium (DMEM/F12; 1/1). Approximately 5 to 7×10^6 cells were obtained per 1 g of human kidney cortical tissue.
# (§4) hPT cells were resuspended in 2 mL of DMEM/F12 and diluted to 500 mL with cell culture medium, which was serum-free and hormonally-defined. Composition of this supplemented medium was based on earlier work establishing optimal conditions for primary culture of rat PT cells (Lash et al., 1995). Basal medium was a 1:1 mixture of DMEM/F12. […] Cells were seeded in a volume of 0.5 ml at a density of 50-100 μg protein per cm^2 (0.5-1.0×10^6 cells/ml) on 24-well plates. Cultures were grown at 37° C. in a humidified incubator under an atmosphere of 95% air/5% CO2 at pH 7.4. Cultures were grown to approximately 80%-90% confluence (generally 5-6 days) prior to experiments. Cells were harvested by either scraping the flasks with a Teflon scraper or by brief incubation with Cellstripper (Cellgro, Herndon, Va., USA) (in Ca^2+- and Mg^2+-free Hanks' buffer).
# [9] = In vitro nephrotoxicity, GGT release from primary human kidney cells; assay type: cell-based; conditions: pH 7.4
# Excerpt: as §2, §3, §4
# Release of gamm-glutanyltransferase was assessed according to Orlowski, M., Meister, A. 1963. γ-Glutamyl-p-nitroanilide: A new convenient substrate for determination and study of L- and D-γ-glutamyltranspeptidase activities (Biochim. Biophys. Acta 73: 679-681.)
# A 2.5 mM substrate Solution was prepared from 67 mg γ-glutamyl-p-nitroanilide+264 mg glycylglycine in 100 mL of 0.05 M Tris, pH 8.2 (50 mM Tris, pH 8.2: 605 mg Tris/HCl per 100 mL).
# For the assay in 96-well plates, 6-μL of sample and 0.3 mL substrate solution were added to each well. The absorbance was measured at 410 nm for the appearance of product, p-nitroanilide (molar extinction=8800 M^−1 cm^−1).
structure (smiles),measurement,setting,value
"CCCCCCC[C@@H](O)CC(=O)N[C@H](CCN)C(=O)N[C@H]1CCNC(=O)[C@H](Cc2c[nH]c3ccccc23)NC(=O)[C@H](CCN)NC(=O)[C@H](CCN)NC(=O)[C@H](CC(C)C)NC(=O)[C@@H](Cc2ccccc2)NC(=O)[C@H](CCN)NC1=O [compound 6509, 3(R)OH-nC9CO-D-Dab-cyc[L-Dab-L-Dab-D-Phe-L-Leu-L-Dab-L-Dab-L-Trp]] ({Decanoyl(3R-OH)}-[dDab][Dab][Dab][dF]L[Dab][Dab]W; lactam 2-C)",MIC A. baumannii ATCC 19606,A. baumannii ATCC 19606,8 µg/mL
same,MIC A. baumannii GN_093 PmxR,A. baumannii GN_093 PmxR,8 µg/mL
same,MIC E. coli ATCC 25922,E. coli ATCC 25922,4 µg/mL
same,MIC K. pneumoniae ATCC 13883,K. pneumoniae ATCC 13883,4 µg/mL
same,"MIC K. pneumoniae ATCC 700603, MDR",[1],2 µg/mL
same,"MIC K. pneumoniae ATCC BAA-2146, NDM-1 pos",[2],4 µg/mL
same,MIC K. pneumoniae GN_102 PmxR,[3],4 µg/mL
same,"MIC K. pneumoniae GN_106, PmxR",[4],4 µg/mL
same,MIC P. aeruginosa ATCC 27853,P. aeruginosa ATCC 27853,2 µg/mL
same,"MIC P. aeruginosa GN_043, PmxR",[5]; polymyxin-resistant,1 µg/mL
same,"MIC P. aeruginosa GN_105, PmxR",[6],1 µg/mL
same,"MIC S. aureus ATCC 25923, MSSA",[7],4 µg/mL
same,MIC N. gonorrhoeae F89,Neisseria gonorrhoeae; strain F89,1.04 µg/mL
same,MIC N. gonorrhoeae FA19 ATCC BAA-1838,Neisseria gonorrhoeae,0.78 µg/mL
same,MIC N. gonorrhoeae FA1090 A25 ATCC 700825,Neisseria gonorrhoeae; strain FA1090 A25 ATCC 700825,0.65 µg/mL
same,MIC N. gonorrhoeae H041,Neisseria gonorrhoeae; strain H041,1.69 µg/mL
same,CC50,[8],> 128 µg/mL
same,CC50,[9],> 128 µg/mL
"CCCCCCC[C@@H](O)CC(=O)NN(CCN)C(=O)N[C@H]1CCNC(=O)[C@H](CC(C)C)NC(=O)[C@H](CCN)NC(=O)[C@H](CCN)NC(=O)[C@H](CC(C)C)NC(=O)[C@@H](Cc2ccccc2)NC(=O)[C@H](CCN)NC1=O [compound 8639, 3(R)OH-nC9CO-azaDab-cyc[L-Dab-L-DAB-D-Phe-L-Leu-L-Dab-L-Dab-L-Leu]] ({Decanoyl(3R-OH)}-[azaDab][Dab][Dab][dF]L[Dab][Dab]L; lactam 2-C)",MIC A. baumannii ATCC 19606,A. baumannii ATCC 19606,4 µg/mL
same,"MIC A. baumannii Cl Ptyela 10073 4512:2, PmxR",A. baumannii GN_093 PmxR,8 µg/mL
same,MIC E. coli ATCC 25922,E. coli ATCC 25922,2 µg/mL
same,MIC K. pneumoniae ATCC 13883,K. pneumoniae ATCC 13883,4 µg/mL
same,"MIC K. pneumoniae ATCC 700603, MDR",[1],2 µg/mL
same,"MIC K. pneumoniae ATCC BAA-2146, NDM-1 pos",[2],4 µg/mL
same,MIC K. pneumoniae Cl Koprana 10065 0661:1 PmxR,[3],2 µg/mL
same,"MIC K. pneumoniae Cl 183-16357-20352, PmxR",[4],2 µg/mL
same,MIC P. aeruginosa ATCC 27853,P. aeruginosa ATCC 27853,2 µg/mL
same,"MIC, P. aeruginosa FADDI-PA070, PmxR",[5]; strain name as in Table 11,2 µg/mL
same,"MIC P. aeruginosa PA9704, PmxR",[6],2 µg/mL
same,"MIC S. aureus ATCC 25923, MSSA",[7],8 µg/mL
same,MIC N. gonorrhoeae FA19 ATCC BAA-1838,Neisseria gonorrhoeae,0.78 µg/mL
same,CC50,[8],> 128 µg/mL
same,CC50,[9],> 128 µg/mL
"CCCCCCC[C@@H](O)CC(=O)N[C@H](CCN)C(=O)N[C@H]1CCNC(=O)[C@H](CC(C)C)NC(=O)[C@H](CCN)NC(=O)[C@H](CCCNC(=N)N)NC(=O)[C@H](CC(C)C)NC(=O)[C@@H](Cc2ccccc2)NC(=O)[C@H](CCN)NC1=O [compound 8733, 3(R)OH-nC9CO-D-Dab-cyc[L-Dab-L-DAB-D-Phe-L-Leu-L-Arg-L-Dab-L-Leu]] ({Decanoyl(3R-OH)}-[dDab][Dab][Dab][dF]LR[Dab]L; lactam 2-C)","MIC, A. baumannii ATCC 19606",A. baumannii ATCC 19606,4 µg/mL
same,"MIC, A. baumannii Cl Ptyela 10073 4512:2, PmxR",A. baumannii GN_093 PmxR,8 µg/mL
same,"MIC, E. coli ATCC 25922",E. coli ATCC 25922,2 µg/mL
same,"MIC, K. pneumoniae ATCC 13883",K. pneumoniae ATCC 13883,2 µg/mL
same,"MIC, K. pneumoniae ATCC 700603, MDR",[1],2 µg/mL
same,"MIC, K. pneumoniae ATCC BAA-2146, NDM-1 pos",[2],4 µg/mL
same,"MIC, K. pneumoniae Cl Koprana 10065 0661:1, PmxR",[3],2 µg/mL
same,"MIC, K. pneumoniae Cl 138-16347-20362, PmxR",[4],2 µg/mL
same,"MIC, P. aeruginosa ATCC 27853",P. aeruginosa ATCC 27853,2 µg/mL
same,"MIC, P. aeruginosa FADDI-PA070, PmxR","[5]; Table 5, polymyxin-resistant",2 µg/mL
same,"MIC, P. aeruginosa PA9704, PmxR",[6],2 µg/mL
same,"MIC, S. Aureus ATCC 25923, MSSA",[7],8 µg/mL
same,MIC N. gonorrhoeae FA19 ATCC BAA-1838,Neisseria gonorrhoeae,0.78 µg/mL
same,CC50,[8],> 128 µg/mL
same,CC50,[9],> 128 µg/mL
